Assay results: patent US20090023769A1, “Organic Compounds” (NOVARTIS AG, priority 2006, published 2009)

Test system: monocrotaline reversal model of pulmonary hypertension
Experiment: monocrotaline reversal model of pulmonary hypertension
Type: in vivo
Conditions: 3 mg/kg orally once daily from days 21-42; also dosed at 0.3 and 1 mg/kg
Method: The compound of formula II, namely 4-[8-(3-Fluorophenyl)-[1,7]naphthyridin-6-yl]-cyclohexanecarboxylic acid and being a representative example of compounds of formula I, is tested in the monocrotaline reversal model of pulmonary hypertension that is described by Schermuly et al in The Journal of Clinical Investigation 2005 October; 115(10):2811-21. The disclosure of that article is incorporated herein by way of reference.
4-[8-(3-Fluorophenyl)-[1,7]-naphthyridin-6-yl]-cyclohexanecarboxylic acid is dosed orally to the animals once daily from days 21-42 of the experiment at 0.3, 1 and 3 mg/kg.

O=C(O)C1CCC(c2cc3cccnc3c(-c3cccc(F)c3)n2)CC1 (stereo not shown) [4-[8-(3-Fluorophenyl)-[1,7]naphthyridin-6-yl]-cyclohexanecarboxylic acid]
shows efficacy: medial wall thickness | mortality | reversal of RV (right ventricular) pressure | reversal of RV hypertrophy
